From ChEMBL document CHEMBL3045512, “Synthesis of some novel triazoloquinazolines and triazinoquinazolines and their evaluation for anti-inflammatory activity” (Med Chem Res, 2012)

Experiments:
Mus musculus [1] = assay: Anti-inflammatory activity in Mus musculus albino (mouse) assessed as inhibition of formalin-induced paw swelling at 30 mg/kg, po administered 30 min prior formalin challenge measured after 90 min post challenge (reference value: 9.5 +/- 0.04 mm/min); assay type: functional
Mus musculus [2] = assay: Toxicity in Mus musculus albino (mouse) assessed as tremor inhind limbs at 90 to 340 mg/kg, ip; assay type: organism-based, Limb; parameters: dose 90-340 mg/kg, route intraperitoneal; conditions: in vivo
Mus musculus [3] = assay: Toxicity in Mus musculus albino (mouse) assessed as rapid respiration at 90 to 340 mg/kg, ip; assay type: organism-based; parameters: dose 90-340 mg/kg, route intraperitoneal; conditions: in vivo
Mus musculus [4] = assay: Anti-inflammatory activity in Mus musculus albino (mouse) assessed as inhibition of formalin-induced paw swelling at 30 mg/kg, po administered 30 min prior formalin challenge measured after 30 min post challenge (reference value: 9.46 +/- 0.035 mm/min); assay type: functional
Mus musculus [5] = assay: Toxicity in Mus musculus albino (mouse) assessed as serum TBARS level at 300 mg/kg, po for 10 days (reference value: 4.35 +/- 0.86 U/l); assay type: organism-based; parameters: dose 300 mg/kg, route oral; conditions: in vivo, 240 h
Mus musculus [6] = assay: Anti-inflammatory activity in Mus musculus albino (mouse) assessed as inhibition of formalin-induced paw swelling at 30 mg/kg, po administered 30 min prior formalin challenge measured after 60 min post challenge (reference value: 9.73 +/- 0.06 mm/min); assay type: functional
Mus musculus [7] = assay: Toxicity in Mus musculus albino (mouse) assessed as bluish toe at 90 to 340 mg/kg, ip; assay type: organism-based; parameters: dose 90-340 mg/kg, route intraperitoneal; conditions: in vivo
Mus musculus [8] = assay: Toxicity in Mus musculus albino (mouse) assessed as serum gamma-glutamyl transferase level at 300 mg/kg, po for 10 days (reference value: 4.43 +/- 0.31 U/l); assay type: organism-based; parameters: dose 300 mg/kg, route oral; conditions: in vivo, 240 h
Mus musculus [9] = assay: Toxicity in Mus musculus albino (mouse) assessed as serum SGPT level at 300 mg/kg, po for 10 days (reference value: 35.82 +/- 5.26 U/l); assay type: organism-based; parameters: dose 300 mg/kg, route oral; conditions: in vivo, 240 h
Mus musculus [10] = assay: Toxicity in Mus musculus albino (mouse) assessed as serum LDH level at 300 mg/kg, po for 10 days (reference value: 217.84 +/- 13.36 U/l); assay type: organism-based; parameters: dose 300 mg/kg, route oral; conditions: in vivo, 240 h
Mus musculus [11] = assay: Toxicity in Mus musculus albino (mouse) assessed as SOD activity per gram of Hb at 300 mg/kg, po for 10 days (reference value: 12.7+/- 2.08 U/g Hb); assay type: organism-based; parameters: dose 300 mg/kg, route oral; conditions: in vivo, 240 h
Mus musculus [12] = assay: Toxicity in Mus musculus albino (mouse) assessed as increase in heart rate at 90 to 340 mg/kg, ip; assay type: organism-based; parameters: dose 90-340 mg/kg, route intraperitoneal; conditions: in vivo
Mus musculus [13] = assay: Toxicity in Mus musculus albino (mouse) assessed as brownish eye mucus at 90 to 340 mg/kg, ip; assay type: organism-based; parameters: dose 90-340 mg/kg, route intraperitoneal; conditions: in vivo
Mus musculus [14] = assay: Toxicity in Mus musculus albino (mouse) assessed as bluish skin at 90 to 340 mg/kg, ip; assay type: organism-based; parameters: dose 90-340 mg/kg, route intraperitoneal; conditions: in vivo
Mus musculus [15] = assay: Toxicity in ip dosed Mus musculus albino (mouse) assessed as mortality measured per gram body weight; assay type: organism-based; conditions: in vivo
Mus musculus [16] = assay: Toxicity in Mus musculus albino (mouse) assessed as serum SGOT level at 300 mg/kg, po for 10 days (reference value: 9.74 +/- 1.73 U/l); assay type: organism-based; parameters: dose 300 mg/kg, route oral; conditions: in vivo, 240 h
Mus musculus [17] = assay: Anti-inflammatory activity in Mus musculus albino (mouse) assessed as inhibition of formalin-induced paw swelling at 30 mg/kg, po administered 30 min prior formalin challenge measured after 120 min post challenge (reference value: 9.83 +/- 0.071 mm/min); assay type: functional
Mus musculus [18] = assay: Toxicity in Mus musculus albino (mouse) assessed as serum ALP level at 300 mg/kg, po for 10 days (reference value: 31.63 +/- 3.73 U/l); assay type: organism-based; parameters: dose 300 mg/kg, route oral; conditions: in vivo, 240 h
Mus musculus [19] = assay: Toxicity in Mus musculus albino (mouse) assessed as general depression at 90 to 340 mg/kg, ip; assay type: organism-based; parameters: dose 90-340 mg/kg, route intraperitoneal; conditions: in vivo
Mus musculus [20] = assay: Toxicity in Mus musculus albino (mouse) assessed as GPx activity per gram of Hb at 300 mg/kg, po for 10 days (Rvb =179.16 +/- 10.45 U/g Hb); assay type: organism-based; parameters: dose 300 mg/kg, route oral; conditions: in vivo, 240 h
Mus musculus [21] = assay: Toxicity in Mus musculus albino (mouse) assessed as GSH activity at 300 mg/kg, po for 10 days (reference value: 59.57 +/- 5.10 %); assay type: organism-based; parameters: dose 300 mg/kg, route oral; conditions: in vivo, 240 h
Mus musculus [22] = assay: Toxicity in Mus musculus albino (mouse) assessed as drop in temperature at extremeties at 90 to 340 mg/kg, ip; assay type: organism-based; parameters: dose 90-340 mg/kg, route intraperitoneal; conditions: in vivo
Mus musculus [23] = assay: Toxicity in Mus musculus albino (mouse) assessed as general depression at 70 to 410 mg/kg, ip; assay type: organism-based; parameters: dose 70-410 mg/kg, route intraperitoneal; conditions: in vivo
Mus musculus [24] = assay: Toxicity in Mus musculus albino (mouse) assessed as tremor inhind limbs at 70 to 410 mg/kg, ip; assay type: organism-based, Limb; parameters: dose 70-410 mg/kg, route intraperitoneal; conditions: in vivo
Mus musculus [25] = assay: Toxicity in Mus musculus albino (mouse) assessed as drop in temperature at extremeties at 70 to 410 mg/kg, ip; assay type: organism-based; parameters: dose 70-410 mg/kg, route intraperitoneal; conditions: in vivo
Mus musculus [26] = assay: Toxicity in Mus musculus albino (mouse) assessed as bluish toe at 70 to 410 mg/kg, ip; assay type: organism-based; parameters: dose 70-410 mg/kg, route intraperitoneal; conditions: in vivo
Mus musculus [27] = assay: Toxicity in Mus musculus albino (mouse) assessed as bluish skin at 70 to 410 mg/kg, ip; assay type: organism-based; parameters: dose 70-410 mg/kg, route intraperitoneal; conditions: in vivo
Mus musculus [28] = assay: Toxicity in Mus musculus albino (mouse) assessed as rapid respiration at 70 to 410 mg/kg, ip; assay type: organism-based; parameters: dose 70-410 mg/kg, route intraperitoneal; conditions: in vivo
Mus musculus [29] = assay: Toxicity in Mus musculus albino (mouse) assessed as brownish eye mucus at 70 to 410 mg/kg, ip; assay type: organism-based; parameters: dose 70-410 mg/kg, route intraperitoneal; conditions: in vivo
Mus musculus [30] = assay: Toxicity in Mus musculus albino (mouse) assessed as increase in heart rate at 70 to 410 mg/kg, ip; assay type: organism-based; parameters: dose 70-410 mg/kg, route intraperitoneal; conditions: in vivo
Mus musculus [31] = assay: Toxicity in Mus musculus albino (mouse) assessed as drop in temperature at extremeties at 80 to 375 mg/kg, ip; assay type: organism-based; parameters: dose 80-375 mg/kg, route intraperitoneal; conditions: in vivo

With CCOC(=O)c1nn2c(=O)c3ccccc3nc2n1-c1ccc(S(=O)(=O)NC(C)=O)cc1 the Activity (Mus musculus [1]) was 6 millimeter/min, the Activity (Mus musculus [2]) was “Toxic” and the Activity (Mus musculus [3]) was “Toxic”. The Activity (Mus musculus [4]) was 6.37 millimeter/min, the Activity (Mus musculus [5]) was 4.02 nmol/mL and the Activity (Mus musculus [6]) was 6.17 millimeter/min. The Activity (Mus musculus [7]) was “Toxic”, the Activity (Mus musculus [8]) was 4.51 U/L and the Activity (Mus musculus [9]) was 31.24 U/L. The Activity (Mus musculus [10]) was 215.78 U/L, the Activity (Mus musculus [11]) was 14 U/g Hb and the Activity (Mus musculus [12]) was “Toxic”. For the same molecule, the Activity (Mus musculus [13]) was “Toxic”, the Activity (Mus musculus [14]) was “Toxic” and the Activity (Mus musculus [15]) was 235 millimeter/min. For the same molecule, the Activity (Mus musculus [16]) was 10.66 U/L, the Activity (Mus musculus [17]) was 5.95 millimeter/min and the Activity (Mus musculus [18]) was 28.95 U/L. For the same molecule, the Activity (Mus musculus [19]) was “Toxic”, the Activity (Mus musculus [20]) was 177 U/g Hb and the Activity (Mus musculus [21]) was 58.63%. For the same molecule, the Activity (Mus musculus [22]) was “Toxic”.

With CC(=O)NS(=O)(=O)c1ccc(-n2c(-c3ccccc3O)nn3c(=O)c4ccccc4nc23)cc1 the Activity (Mus musculus [1]) was 6.83 millimeter/min, the Activity (Mus musculus [4]) was 6.43 millimeter/min and the Activity (Mus musculus [5]) was 4.11 nmol/mL. The Activity (Mus musculus [6]) was 6.11 millimeter/min, the Activity (Mus musculus [23]) was “Toxic” and the Activity (Mus musculus [8]) was 4.36 U/L. The Activity (Mus musculus [24]) was “Toxic”, the Activity (Mus musculus [9]) was 28.44 U/L and the Activity (Mus musculus [10]) was 211.27 U/L. For the same molecule, the Activity (Mus musculus [11]) was 12.4 U/g Hb, the Activity (Mus musculus [25]) was “Toxic” and the Activity (Mus musculus [26]) was “Toxic”. For the same molecule, the Activity (Mus musculus [15]) was 213.25 millimeter/min, the Activity (Mus musculus [27]) was “Toxic” and the Activity (Mus musculus [28]) was “Toxic”. The Activity (Mus musculus [29]) was “Toxic”, the Activity (Mus musculus [16]) was 11.1 U/L and the Activity (Mus musculus [17]) was 6.02 millimeter/min. The Activity (Mus musculus [30]) was “Toxic”, the Activity (Mus musculus [18]) was 33.26 U/L and the Activity (Mus musculus [20]) was 180 U/g Hb. The Activity (Mus musculus [21]) was 60.12% and the Activity (Mus musculus [31]) was “Toxic”.
